*1 amine or outer side, *2 acyl side, *3 side chain or, on linkers, in order; H or OH if unused. Where a SMILES comes first, the peptide text is derived from it. Bridges are numbered along the chain shown (N, C = ends). [ ]: non-standard residue; d: D form. The star is where a group is joined. hPhe(3-Cl-4-CF3) = N[C@@H](CCc1ccc(C(F)(F)F)c(Cl)c1)C(=O)O; NPrPhe(4-CF3) = CCCN[C@@H](Cc1ccc(C(F)(F)F)cc1)C(=O)O; X39 = Cc1ccc(C[C@@H](C(=O)[*:2])N(CC(C)C)[*:1])cc1; X49 = Cc1ccc(C[C@@H](C(=O)[*:2])N(CC2CC2)[*:1])cc1; X19 = CCCCN([C@@H](Cc1ccc(C)cc1)C(=O)[*:2])[*:1]; NPrPhe(4-Me) = CCCN[C@@H](Cc1ccc(C)cc1)C(=O)O; NEtPhe(4-Me) = CCN[C@@H](Cc1ccc(C)cc1)C(=O)O; X5 = CCCN([C@H](C(=O)[*:2])C1CCCC1)[*:1]; NMeGly(cPent) = CN[C@H](C(=O)O)C1CCCC1; Hyp = O=C(O)[C@@H]1C[C@@H](O)CN1; NMeD = CN[C@@H](CC(=O)O)C(=O)O; NMeL = CN[C@@H](CC(C)C)C(=O)O; Morpholide = C1CN(*)CCO1; NMeA = CN[C@@H](C)C(=O)O; Ac5c = NC1(C(=O)O)CCCC1; Aze = O=C(O)[C@@H]1CCN1; NEtG = CCNCC(=O)O; X45 = C1CCC(*)OC1; Sar = CNCC(=O)O
Columns and labels:
[1] = molecular target: GDP-bound HRAS wild-type protein (Homo sapiens, UniProt P01112); experiment: Binding to HRAS by surface plasmon resonance (SPR), Single Cycle Kinetics; details: KD ratio HRAS/KRAS, SPR
[2] = molecular target: GDP-bound NRAS wild-type protein (Homo sapiens, UniProt P01111); experiment: Binding to NRAS by surface plasmon resonance (SPR), Single Cycle Kinetics; details: KD ratio NRAS/KRAS, SPR
Chain of GDP-bound NRAS wild-type protein (P01111 whole entry): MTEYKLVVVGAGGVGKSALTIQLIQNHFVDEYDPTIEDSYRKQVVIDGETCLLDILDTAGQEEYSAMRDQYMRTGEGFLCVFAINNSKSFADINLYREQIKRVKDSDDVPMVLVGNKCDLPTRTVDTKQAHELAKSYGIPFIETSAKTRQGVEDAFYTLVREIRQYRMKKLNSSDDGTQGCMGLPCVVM

Chain of GDP-bound HRAS wild-type protein (P01112 whole entry): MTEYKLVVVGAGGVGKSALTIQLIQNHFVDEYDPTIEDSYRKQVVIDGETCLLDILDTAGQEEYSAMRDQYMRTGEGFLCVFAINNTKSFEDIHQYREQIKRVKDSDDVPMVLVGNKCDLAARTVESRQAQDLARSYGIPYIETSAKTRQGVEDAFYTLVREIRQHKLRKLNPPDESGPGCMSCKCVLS

Row | SMILES | HRAS/KRAS (ratio of KD for GDP-bound HRAS wild-type to KD for KRAS) [1] | NRAS/KRAS (ratio of KD for GDP-bound NRAS wild-type to KD for KRAS) [2]
1 | CC[C@H](C)[C@@H]1NC(=O)[C@H](CC(C)C)N(C)C(=O)C[C@@H](C(=O)N2CCOCC2)N(C)C(=O)[C@H](C2CCCC2)N(C)C(=O)C2(CCCC2)NC(=O)[C@@H]2CCCN2C(=O)[C@H](CCc2ccc(C(F)(F)F)c(Cl)c2)NC(=O)CN(C)C(=O)[C@H](Cc2ccc(C)cc2)N(CC(C)C)C(=O)[C@@H]2CCN2C(=O)[C@H](C)N(C)C1=O [PP0056] ([NMeL]I[NMeA][Aze][X39][Sar][hPhe(3-Cl-4-CF3)]P[Ac5c][NMeGly(cPent)][NMeD]-Morpholide; lactam N-11) | B (a compound having 3 or more and less than 10 is denoted as B) | C (A compound having a KD ratio of 0.1 or more and less than 3 is denoted as C)
2 | CC[C@H](C)[C@@H]1NC(=O)[C@H](CC(C)C)N(C)C(=O)C[C@@H](C(=O)N2CCOCC2)N(C)C(=O)[C@H](C2CCCC2)N(C)C(=O)C2(CCCC2)NC(=O)[C@@H]2CCCN2C(=O)[C@H](CCc2ccc(C(F)(F)F)c(Cl)c2)NC(=O)CN(C)C(=O)[C@H](Cc2ccc(C)cc2)N(CC2CC2)C(=O)[C@@H]2CCN2C(=O)[C@H](C)N(C)C1=O [PP0057] ([NMeL]I[NMeA][Aze][X49][Sar][hPhe(3-Cl-4-CF3)]P[Ac5c][NMeGly(cPent)][NMeD]-Morpholide; lactam N-11) | B (a compound having 3 or more and less than 10 is denoted as B) | C (A compound having a KD ratio of 0.1 or more and less than 3 is denoted as C)
3 | CCCN1C(=O)[C@@H]2CCN2C(=O)[C@H](C)N(C)C(=O)[C@H]([C@@H](C)CC)NC(=O)[C@H](CC(C)C)N(C)C(=O)C[C@@H](C(=O)N2CCOCC2)N(C)C(=O)[C@H](C2CCCC2)N(C)C(=O)C2(CCCC2)NC(=O)[C@@H]2CCCN2C(=O)[C@H](CCc2ccc(C(F)(F)F)c(Cl)c2)NC(=O)CN(CC)C(=O)[C@@H]1Cc1ccc(C)cc1 [PP0058] ([NMeL]I[NMeA][Aze][NPrPhe(4-Me)][NEtG][hPhe(3-Cl-4-CF3)]P[Ac5c][NMeGly(cPent)][NMeD]-Morpholide; lactam N-11) | C (A compound having a KD ratio of 0.1 or more and less than 3 is denoted as C) | C (A compound having a KD ratio of 0.1 or more and less than 3 is denoted as C)
4 | CCCN1C(=O)CN(C)C(=O)CN(C)C(=O)[C@H]([C@@H](C)CC)NC(=O)[C@H](CC(C)C)N(C)C(=O)C[C@@H](C(=O)N2CCOCC2)N(C)C(=O)[C@H](C2CCCC2)N(C)C(=O)C2(CCCC2)NC(=O)[C@@H]2CCCN2C(=O)[C@H](CCc2ccc(C(F)(F)F)c(Cl)c2)NC(=O)CN(C)C(=O)[C@@H]1Cc1ccc(C)cc1 [PP0059] ([NMeL]I[Sar][Sar][NPrPhe(4-Me)][Sar][hPhe(3-Cl-4-CF3)]P[Ac5c][NMeGly(cPent)][NMeD]-Morpholide; lactam N-11) | C (A compound having a KD ratio of 0.1 or more and less than 3 is denoted as C) | B (a compound having 3 or more and less than 10 is denoted as B)
5 | CCCN1C(=O)CN(C)C(=O)CN(C)C(=O)[C@H]([C@@H](C)CC)NC(=O)[C@H](CC(C)C)N(C)C(=O)C[C@@H](C(=O)N2CCOCC2)N(C)C(=O)[C@H](C2CCCC2)N(C)C(=O)C2(CCCC2)NC(=O)[C@@H]2CCCN2C(=O)[C@H](CCc2ccc(C(F)(F)F)c(Cl)c2)NC(=O)CN(C)C(=O)[C@@H]1Cc1ccc(C(F)(F)F)cc1 [PP0060] ([NMeL]I[Sar][Sar][NPrPhe(4-CF3)][Sar][hPhe(3-Cl-4-CF3)]P[Ac5c][NMeGly(cPent)][NMeD]-Morpholide; lactam N-11) | B (a compound having 3 or more and less than 10 is denoted as B) | B (a compound having 3 or more and less than 10 is denoted as B)
6 | CCCN1C(=O)CN(C)C(=O)CN(C)C(=O)[C@H]([C@@H](C)CC)NC(=O)[C@H](CC(C)C)N(C)C(=O)C[C@@H](C(=O)N2CCOCC2)N(C)C(=O)[C@H](C2CCCC2)N(C)C(=O)C2(CCCC2)NC(=O)[C@@H]2CCCN2C(=O)[C@H](CCc2ccc(C(F)(F)F)c(Cl)c2)NC(=O)CN(C)C(=O)[C@@H]1C1CCCC1 [PP0061] ([NMeL]I[Sar][Sar][X5][Sar][hPhe(3-Cl-4-CF3)]P[Ac5c][NMeGly(cPent)][NMeD]-Morpholide; lactam N-11) | C (A compound having a KD ratio of 0.1 or more and less than 3 is denoted as C) | B (a compound having 3 or more and less than 10 is denoted as B)
7 | CCCCN1C(=O)CN(C)C(=O)CN(C)C(=O)[C@H]([C@@H](C)CC)NC(=O)[C@H](CC(C)C)N(C)C(=O)C[C@@H](C(=O)N2CCOCC2)N(C)C(=O)[C@H](C2CCCC2)N(C)C(=O)C2(CCCC2)NC(=O)[C@@H]2CCCN2C(=O)[C@H](CCc2ccc(C(F)(F)F)c(Cl)c2)NC(=O)CN(C)C(=O)[C@@H]1Cc1ccc(C)cc1 [PP0062] ([NMeL]I[Sar][Sar][X19][Sar][hPhe(3-Cl-4-CF3)]P[Ac5c][NMeGly(cPent)][NMeD]-Morpholide; lactam N-11) | C (A compound having a KD ratio of 0.1 or more and less than 3 is denoted as C) | C (A compound having a KD ratio of 0.1 or more and less than 3 is denoted as C)
8 | CC[C@H](C)[C@@H]1NC(=O)[C@H](CC(C)C)N(C)C(=O)C[C@@H](C(=O)N2CCOCC2)N(C)C(=O)[C@H](C2CCCC2)N(C)C(=O)C2(CCCC2)NC(=O)[C@@H]2CCCN2C(=O)[C@H](CCc2ccc(C(F)(F)F)c(Cl)c2)NC(=O)CN(C)C(=O)[C@H](Cc2ccc(C)cc2)N(CC(C)C)C(=O)CN(C)C(=O)CN(C)C1=O [PP0063] ([NMeL]I[Sar][Sar][X39][Sar][hPhe(3-Cl-4-CF3)]P[Ac5c][NMeGly(cPent)][NMeD]-Morpholide; lactam N-11) | C (A compound having a KD ratio of 0.1 or more and less than 3 is denoted as C) | C (A compound having a KD ratio of 0.1 or more and less than 3 is denoted as C)
9 | CC[C@H](C)[C@@H]1NC(=O)[C@H](CC(C)C)N(C)C(=O)C[C@@H](C(=O)N2CCOCC2)N(C)C(=O)[C@H](C2CCCC2)N(C)C(=O)C2(CCCC2)NC(=O)[C@@H]2CCCN2C(=O)[C@H](CCc2ccc(C(F)(F)F)c(Cl)c2)NC(=O)CN(C)C(=O)[C@H](Cc2ccc(C)cc2)N(CC2CC2)C(=O)CN(C)C(=O)CN(C)C1=O [PP0064] ([NMeL]I[Sar][Sar][X49][Sar][hPhe(3-Cl-4-CF3)]P[Ac5c][NMeGly(cPent)][NMeD]-Morpholide; lactam N-11) | C (A compound having a KD ratio of 0.1 or more and less than 3 is denoted as C) | C (A compound having a KD ratio of 0.1 or more and less than 3 is denoted as C)
10 | CCCN1C(=O)CN(CC)C(=O)CN(C)C(=O)[C@H]([C@@H](C)CC)NC(=O)[C@H](CC(C)C)N(C)C(=O)C[C@@H](C(=O)N2CCOCC2)N(C)C(=O)[C@H](C2CCCC2)N(C)C(=O)C2(CCCC2)NC(=O)[C@@H]2CCCN2C(=O)[C@H](CCc2ccc(C(F)(F)F)c(Cl)c2)NC(=O)CN(C)C(=O)[C@@H]1Cc1ccc(C)cc1 [PP0065] ([NMeL]I[Sar][NEtG][NPrPhe(4-Me)][Sar][hPhe(3-Cl-4-CF3)]P[Ac5c][NMeGly(cPent)][NMeD]-Morpholide; lactam N-11) | C (A compound having a KD ratio of 0.1 or more and less than 3 is denoted as C) | C (A compound having a KD ratio of 0.1 or more and less than 3 is denoted as C)
11 | CCCN1C(=O)CN(C)C(=O)CN(C)C(=O)[C@H]([C@@H](C)CC)NC(=O)[C@H](CC(C)C)N(C)C(=O)C[C@@H](C(=O)N2CCOCC2)N(C)C(=O)[C@H](C2CCCC2)N(C)C(=O)C2(CCCC2)NC(=O)[C@@H]2CCCN2C(=O)[C@H](CCc2ccc(C(F)(F)F)c(Cl)c2)NC(=O)CN(CC)C(=O)[C@@H]1Cc1ccc(C)cc1 [PP0066] ([NMeL]I[Sar][Sar][NPrPhe(4-Me)][NEtG][hPhe(3-Cl-4-CF3)]P[Ac5c][NMeGly(cPent)][NMeD]-Morpholide; lactam N-11) | C (A compound having a KD ratio of 0.1 or more and less than 3 is denoted as C) | B (a compound having 3 or more and less than 10 is denoted as B)
12 | CC[C@H](C)[C@@H]1NC(=O)[C@H](CC(C)C)N(C)C(=O)C[C@@H](C(=O)N2CCOCC2)N(C)C(=O)[C@H](C2CCCC2)N(C)C(=O)C2(CCCC2)NC(=O)[C@@H]2C[C@@H](OC3CCCCO3)CN2C(=O)[C@H](CCc2ccc(C(F)(F)F)c(Cl)c2)NC(=O)CN(C)C(=O)[C@H](Cc2ccc(C)cc2)N(CC)C(=O)[C@@H]2CCN2C(=O)[C@H](C)N(C)C1=O (some centres unmarked) [PP0067] ([NMeL]I[NMeA][Aze][NEtPhe(4-Me)][Sar][hPhe(3-Cl-4-CF3)][Hyp](X45)[Ac5c][NMeGly(cPent)][NMeD]-Morpholide; lactam N-11) | C (A compound having a KD ratio of 0.1 or more and less than 3 is denoted as C) | C (A compound having a KD ratio of 0.1 or more and less than 3 is denoted as C)
13 | CC[C@H](C)[C@@H]1NC(=O)[C@H](CC(C)C)N(C)C(=O)C[C@@H](C(=O)N2CCOCC2)N(C)C(=O)[C@H](C2CCCC2)N(C)C(=O)C2(CCCC2)NC(=O)[C@@H]2C[C@@H](OC3CCCCO3)CN2C(=O)[C@H](CCc2ccc(C(F)(F)F)c(Cl)c2)NC(=O)CN(C)C(=O)[C@H](Cc2ccc(C)cc2)N(CC)C(=O)CN(C)C(=O)CN(C)C1=O (some centres unmarked) [PP0068] ([NMeL]I[Sar][Sar][NEtPhe(4-Me)][Sar][hPhe(3-Cl-4-CF3)][Hyp](X45)[Ac5c][NMeGly(cPent)][NMeD]-Morpholide; lactam N-11) | C (A compound having a KD ratio of 0.1 or more and less than 3 is denoted as C) | C (A compound having a KD ratio of 0.1 or more and less than 3 is denoted as C)
